# pIC50: −log10 of the molar value. Where a SMILES comes first, the peptide text is derived from it.
# What was measured:
# Plasmodium falciparum [1] = test: Antiplasmodial activity against Plasmodium falciparum; type: functional, organism-based
# Plasmodium falciparum [2] = test: Antiplasmodial activity against D-sorbitol synchronized ring stage Plasmodium falciparum 3D7 after 72 hrs; type: functional, organism-based; conditions: 3D7, 72 h
# Plasmodium falciparum [3] = test: Antiplasmodial activity against D-sorbitol synchronized ring stage chloroquine/mefloquine/pyrimethamine-resistant Plasmodium falciparum Dd2 after 72 hrs; type: functional, organism-based; conditions: Dd2, 72 h
# Erythrocyte = test: Hemolytic activity in human RBC assessed as release of hemoglobin at 0.78 nM to 26 uM incubated for 72 hrs; type: ADME, cell-based; conditions: 0.00078 µM
SMILES,pIC50 (Plasmodium falciparum [1]),pIC50 (Plasmodium falciparum [2]),pIC50 (Plasmodium falciparum [3]),Activity (Erythrocyte)
C[C@@H](O)[C@@H]1NC(=O)CNC(=O)[C@H](Cc2ccccc2)NC(=O)[C@H](Cc2ccccc2)NC(=O)CNC(=O)[C@H](Cc2ccccc2)NC(=O)[C@H](Cc2ccccc2)NC1=O (cyclo(FFGFFGT)),5.66,,,
CC[C@H](C)[C@@H]1NC(=O)[C@H]([C@@H](C)CC)NC(=O)[C@H]([C@@H](C)CC)NC(=O)[C@@H]2CCCN2C(=O)[C@H]([C@@H](C)O)NC(=O)[C@@H]2CCCN2C(=O)[C@@H]2CCCN2C(=O)[C@H](CC(C)C)NC1=O (cyclo(IIILPPTP)),,5.44,5.74,Non-Toxic

# Source: ChEMBL document CHEMBL4622876, “Total Synthesis and Antimalarial Activity of Dominicin, a Cyclic Octapeptide from a Marine Sponge” (J Nat Prod, 2020)
